Assay results: US6017947A, “Heterocyclic carbodithioperoxyimidic compounds useful for the inhibition of the replication of HIV” (priority 1999, dated 2000)
Values joined by “and” are separate entries in the source; they are usually repeats but may differ in a detail not shown here. Identical values can stand only once.

What was measured:
HIV-1(IIIB) = experiment: Inhibition of HIV-1 induced syncytium formation in CEM cells, HIV-1(IIIB) (WT); format: cell-based; conditions: day 4 post infection
From the text: Cells and Viruses CEM cells were obtained from the […] (Rockville, Md.). HIV-l(IIIB) was originally obtained from the culture supernatant of persistently HIV-1-infected H9 cells and was provided by R. C. Gallo and M. Popovic (National Cancer Institute, National Institutes of Health, Bethesda, Md.).
(§1) CEM cells were suspended at ≈300,000 cells per ml of culture medium and infected with approximately 100 CCID50 (CCID50 being the 50% cell culture infective dose) of HIV-1(IIIB) (designated as "WT" in Table 3) or one of the HIV-1 RT mutant strains described above. Then 100 μl of the infected cell suspensions was added to 200 μl microtiter plate wells containing 100 μl of appropriate serial (5-fold) dilutions of the test compounds. The inhibitiory effect of the test compounds on HIV-1 induced syncytium formation in CEM cells was examined microscopically on day 4 post infection. The 50% effective concentration (EC50) was defined as the test compound concentration that inhibits syncytium formation in the HIV-1-infected cell cultures by 50%.

HIV-1/188-Leu = experiment: Inhibition of HIV-1 induced syncytium formation in CEM cells, RT mutant 188-Leu; format: cell-based; conditions: Human immunodeficiency virus 1, CCRF-CEM, 96 h
From the text: (§2) The selection and characterization of the HIV-1 RT mutant strains were done as follows: HIV-1/100-Ile ("100-Ile") was selected for resistance against TIBO R82150 as described in Balzarini et al, Virology 192: 246-253 (1993); HIV-1/103-Asn ("103-Asn") was selected for resistance against TIBO R82913 as described in Balzarini et al, Virology 192: 246-253 (1993); HIV-1/106-Ala ("106-Ala") was selected for resistance against nevirapine as described in Balzarini et al, J. Virol. 67: 5353-5359 (1993); HIV-1/Lys-138 ("ys-138") was selected for resistance against TSAO-m^3 T as described in Balzarini et al, Virology 192: 246-253 (1993) and Balzarini et al, Proc. Nat. Acad. Sci. USA 90: 6952-6956 (1993); HIV-1/181-Cys ("181-Cys") was selected for resistance against pyridinone L-697,661 as described in Balzarini et al, Virology 192: 246-253 (1993); and HIV-1/188-His ("188-His") was selected for resistance against HEPT as described in Balzarini et al, Mol. Pharmocol. 44: 694-701 (1993). 188-His was then further converted to HIV-1/188-Leu("188-Leu") upon further passage in cell culture in the absence of the HEPT. HIV-1/101-Glu ("101-Glu") and HIV-1/190-Glu ("190-Glu") were selected for resistance against the thiocarboxanilide derivative designated as UC38 as described in Balzarini et al, Antiviral Research 27: 219-236 (1995). HIV-1/184-Ile ("184-Ile") was selected for resistance against the combination of 3TC and TSAO-m^3 T as described in Balzarini et al, Molecular Pharm. 49: 882-890 (1996). HIV-1/184-Val ("184-Val") was selected for resistance against 3TC as described in Balzarini et al, Molecular Pharm. 49: 882-890 (1996).
as §1

HIV-1/103-Asn = experiment: Inhibition of HIV-1 induced syncytium formation in CEM cells, RT mutant 103-Asn; format: cell-based; conditions: Human immunodeficiency virus 1, CCRF-CEM, 96 h
From the text: as §2, §1

HIV-1/106-Ala = experiment: Inhibition of HIV-1 induced syncytium formation in CEM cells, RT mutant 106-Ala; format: cell-based; conditions: Human immunodeficiency virus 1, CCRF-CEM, 96 h
From the text: as §2, §1

HIV-1/184-Val = experiment: Inhibition of HIV-1 induced syncytium formation in CEM cells, RT mutant 184-Val; format: cell-based; conditions: Human immunodeficiency virus 1, CCRF-CEM, 96 h
From the text: as §2, §1

HIV-1/190-Glu = experiment: Inhibition of HIV-1 induced syncytium formation in CEM cells, RT mutant 190-Glu; format: cell-based; conditions: Human immunodeficiency virus 1, CCRF-CEM, 96 h
From the text: as §2, §1

HIV-1/188-His = experiment: Inhibition of HIV-1 induced syncytium formation in CEM cells, RT mutant 188-His; format: cell-based; conditions: Human immunodeficiency virus 1, CCRF-CEM, 96 h
From the text: as §2, §1

HIV-1/181-Cys = experiment: Inhibition of HIV-1 induced syncytium formation in CEM cells, RT mutant 181-Cys; format: cell-based; conditions: Human immunodeficiency virus 1, CCRF-CEM, 96 h
From the text: as §2, §1

HIV-1/Lys-138 = experiment: Inhibition of HIV-1 induced syncytium formation in CEM cells, RT mutant 138-Lys; format: cell-based; conditions: Human immunodeficiency virus 1, CCRF-CEM, 96 h
From the text: as §2, §1

HIV-1/100-Ile = experiment: Inhibition of HIV-1 induced syncytium formation in CEM cells, RT mutant 100-Ile; format: cell-based; conditions: Human immunodeficiency virus 1, CCRF-CEM, 96 h
From the text: as §2, §1

HIV-1/101-Glu = experiment: Inhibition of HIV-1 induced syncytium formation in CEM cells, RT mutant 101-Glu; format: cell-based; conditions: Human immunodeficiency virus 1, CCRF-CEM, 96 h
From the text: as §2, §1

HIV-1/184-Ile = experiment: Inhibition of HIV-1 induced syncytium formation in CEM cells, RT mutant 184-Ile; format: cell-based; conditions: Human immunodeficiency virus 1, CCRF-CEM, 96 h
From the text: as §2, §1

[1] = tested on: HIV-1 strains containing the 100 Leu→Ile mutation in their RT; conditions: cited from earlier work
[2] = tested on: 181 Tyr→Cys mutation in the RT of HIV-1 strains; conditions: cited from earlier work
[3] = Table 2, HIV-1(IIIB), repeat values
[4] = Human immunodeficiency virus 1, IIIB, CCRF-CEM, 96 h, Table 2, HIV-1(IIIB), repeat values
[5] = Human immunodeficiency virus 1, IIIB, CCRF-CEM, 96 h, Table 3, WT (HIV-1(IIIB))

Structure (SMILES) | EC50 (HIV-1(IIIB); [3]) | EC50 (HIV-1/188-Leu) [µg/mL] | EC50 (HIV-1(IIIB); [4]) [nM] | EC50 (HIV-1(IIIB); [5]) [µg/mL] | EC50 (HIV-1/103-Asn) [µg/mL] | EC50 (HIV-1/106-Ala) [µg/mL] | EC50 (HIV-1/184-Val) [µg/mL] | EC50 (HIV-1/190-Glu) [µg/mL] | EC50 (HIV-1/188-His) [µg/mL] | EC50 (HIV-1/181-Cys) [µg/mL] | EC50 (HIV-1/Lys-138) [µg/mL] | EC50 (HIV-1/100-Ile) [µg/mL] | EC50 (HIV-1/101-Glu) [µg/mL] | EC50 (HIV-1/184-Ile) [µg/mL] | resistance of the mutant strain to the compound [1] | resistance of the mutant strain to the compound [2]
CSSC(=Nc1ccc(Cl)c(OCCC(C)C)c1)c1ccsc1C [Compound 1, N-[4-chloro-3-(3-methylbutoxy)-phenyl]-2-methyl-3-thiophenecarbodithioperoxyimidic acid methyl ester] | 104 nM and 186 nM | – | – | – | – | – | – | – | – | – | – | – | – | – | – | –
CSSC(=Nc1ccc(Cl)c(C=NOC(C)(C)C)c1)c1ccoc1C [Compound 3] | 121 nM | 1.35 | 128 | 0.018 | 1.33 | 0.18 | 0.12 | > 2 | 0.8 | 0.1 | 0.1 | 0.47 | 0.14 | 0.03 | – | –
CSSC(=Nc1ccc(Cl)c(OCC=C(C)C)c1)c1ccoc1C [Compound 4] | – | 0.58 | – | 0.0018 | 0.15 | 0.018 | 0.0015 | > 2 | 0.85 | 0.08 | 0.008 | 0.053 | 0.027 | 0.0032 | – | –
CSSC(=Nc1ccc(Cl)c(C=NOC(C)C)c1)c1ccoc1C [Compound 5, N-[4-chloro-3-[[(1-methylethoxy)imino]-methyl]phenyl]-2-methyl-3-furancarbodithioperoxyimidic acid methyl ester] | 43.1 nM | 0.95 | 73.2 | 0.0075 | 0.85 | 0.1 | 0.0075 | > 2 | 0.7 | 0.18 | 0.1 | 0.25 | 0.13 | 0.013 | – | –
CSSC(=Nc1ccc(Cl)c(OCCC(C)C)c1)c1ccoc1C [Compound 6] | 80.4 nM | > 2 | 83.7 | 0.012 | 0.65 | 0.13 | 0.008 | > 2 | ≥ 2 | 0.29 | 0.15 | 0.25 | 0.13 | 0.02 | – | –
CSSC(=Nc1ccc(Cl)c(COc2ccccc2Cl)c1)c1ccoc1C [Compound 7] | 53.3 nM | 0.7 | 48.6 | 0.0075 | ≥ 2 | 0.55 | 0.009 | > 2 | 0.65 | 0.47 | 0.13 | 0.93 | 0.34 | 0.02 | – | –
Cc1occc1C(=Nc1ccc(Cl)c(C=NOC(C)(C)C)c1)SSc1ccccc1 [Compound 8] | 83.2 nM | > 2 | 156 | 0.03 | ≥ 2 | 0.7 | 0.018 | > 2 | ≥ 2 | 0.23 | 0.18 | 0.65 | 0.2 | 0.03 | – | –
CSSC(=Nc1ccc(Cl)c(OCC=C(C)C)c1)c1cc(C)oc1C [Compound 9, N-[4-chloro-3-[(3-methyl-2-butenyl)oxy]phenyl]-2,5-dimethyl-3-furancarbodithioperoxyimidic acid methyl ester] | 66.9 nM | ≥ 2 | 65 | 0.0097 | ≥ 2 | 0.2 | 0.009 | > 2 | ≥ 2 | 0.7 | 0.09 | ≥ 2 | 0.28 | 0.05 | – | –
CC(C)=CCOc1cc(N=C(SSc2ccccc2)c2ccoc2C)ccc1Cl [Compound 10] | – | > 2 | – | 0.05 | ≥ 2 | 0.5 | 0.053 | > 2 | ≥ 2 | ≥ 2 | 0.23 | 1.5 | 0.2 | 0.09 | – | –
CC(C)=CCOc1cc(N=C(SN2CCOCC2)c2ccoc2C)ccc1Cl [Compound 11] | 12.4 nM | – | 16.3 | – | – | – | – | – | – | – | – | – | – | – | – | –
CC(C)=CCN1Cc2cccc3[nH]c(=S)n(c23)C[C@@H]1C [Compound R82150] | – | – | – | – | – | – | – | – | – | – | – | – | – | – | resistant | –
CC(C)=CCN1Cc2cc(Cl)cc3[nH]c(=S)n(c23)C[C@@H]1C [TIBO R82913] | – | – | – | – | – | – | – | – | – | – | – | – | – | – | resistant | –
Cc1ccnc2c1NC(=O)c1cccnc1N2C1CC1 [nevirapine] | – | – | – | – | – | – | – | – | – | – | – | – | – | – | – | resistant
